≈ marks a conversion by molar mass, not a printed value. Where two headings read alike, the source gives them in different places.
Assays:
Acinetobacter baumanii = assay: MIC test, multi-resistant Acinetobacter baumanii; assay type: cell-based; details: multi-resistant strain; averages of multiple test runs; log2 dilutions from 250 μg/ml
Procedure: (§1) The activities of the compounds were tested in two different screening systems. The antibacterial and antifungal activities were examined by means of an MIC test, MIC standing for “minimal inhibitory concentration” and referring to the lowest concentration of a substance at which no proliferation of microorganisms can be observed with the naked eye. The MIC is determined by means of a so called titration method in which the substance is diluted and, subsequently, the pathogen is added to it.
(§2) Usually, this method is applied in order to determine the concentration of an antibiotic which only just inhibits the growth of a bacterial strain. The MIC is indicated in micrograms per milliliter (μg/ml), and the dilutions are conventionally carried out in log2 steps. Herein, a starting concentration of 250 μg/ml was diluted several times, to the double volume in each case, resulting in test concentrations of 250 μg/ml, 125 μg/ml, 62.5 μg/ml, 31.2 μg/ml, 15.6 μg/ml, 7.8 μg/ml, etc. Thus, lower values indicate a better activity as an anti-infective.
(§3) The tests were carried out according to the standards of EUCAST (European Committee for Antimicrobial Susceptibility Testing) and according to the AFST-protocol (“Antifungal Susceptibility Testing” protocol) of the European Society of Clinical Microbiology and Infectious Diseases (ESCMID).
(§4) In the following Table 3, the test results indicating the anti-infective action of altersolanol M, alterporriol I and J as well as of some known and structurally similar comparative substances against some multi-resistant bacteria and fungi (all of which were kindly placed at our disposal by Prof Georgopulos from the Medical University of Vienna). The data constituting averages of the values obtained in multiple test runs.

Pseudomonas aeruginosa = assay: MIC test, multi-resistant Pseudomonas aeruginosa; assay type: cell-based; details: multi-resistant strain; averages of multiple test runs; log2 dilutions from 250 μg/ml
Procedure: as §1, §2
(§5) The tests were carried out according to the standards of EUCAST (European Committee for Antimicrobial Susceptibility Testing) and according to the AFST-protocol (“Antifungal Susceptibility Testing” protocol) of the European Society of Clinical Microbiology and Infectious Diseases (ESCMID). […]

Streptococcus pneumoniae = assay: MIC test, multi-resistant Streptococcus pneumoniae; assay type: cell-based; details: for MHK values STR (Streptococcus pneumoniae): multi-resistant strain, averages of multiple test runs, log2 dilutions from 250 μg/ml
Procedure: as §1, §2, §3, §4

[1] = system: methicillin-resistant Staphylococcus aureus; assay: MIC test, MRSA; assay type: cell-based; details: for MIC: Staphylococcus aureus, MRSA, read-out: MHK values MRSA (methicillin-resistant Staphylococcus aureus)
Procedure: as §1, §2, §3, §4

[2] = system: Enterococcus faecalis or faecium; assay: MIC test, multi-resistant Enterococcus; assay type: cell-based; details: multi-resistant strain; averages of multiple test runs; log2 dilutions from 250 μg/ml
Procedure: as §1, §2, §3, §4

[3] = system: Aspergillus fumigatus or faecalis; assay: MIC test (antifungal), Aspergillus; assay type: cell-based; details: multi-resistant strain; averages of multiple test runs; log2 dilutions from 250 μg/ml
Procedure: as §1, §2, §3, §4

Staphylococcus epidermis = assay: MIC test, multi-resistant Staphylococcus epidermis; assay type: cell-based; details: for MIC: Staphylococcus, read-out: MHK values SE (Staphylococcus epidermis)
Procedure: as §1, §2, §3, §4

[4] = Yagi et al., Phytochemistry 34(4), 1005-1009 (1993); cited from earlier work
[5] = system: Staphylococcus aureus or methicillin-resistant Staphylococcus aureus; details: Xu et al. 2008; Sommart et al. 2008; cited from earlier work
E. coli = assay: MIC test, multi-resistant E. coli; assay type: cell-based; details: multi-resistant strain; averages of multiple test runs; log2 dilutions from 250 μg/ml
Procedure: as §1, §2, §3, §4

bacteria and fungi = details: Aly et al., Phytochemistry 69, 1716-1725; cited from earlier work
Klebsiella sp. = assay: MIC test, multi-resistant Klebsiella sp.; assay type: cell-based; details: multi-resistant strain; averages of multiple test runs; log2 dilutions from 250 μg/ml
Procedure: as §1, §2, §5

[6] = multi-resistant strain, averages of multiple test runs, log2 dilutions from 250 μg/ml
[7] = verbal summary of the MIC test series

Indole carbaldehyde (carboxaldehyde)
MHK values AB (Acinetobacter baumanii) (Acinetobacter baumanii): 125 µg/mL
MHK values PS (Pseudomonas aeruginosa) (Pseudomonas aeruginosa): 125 µg/mL
MHK values STR (Streptococcus pneumoniae) (Streptococcus pneumoniae): 62.5 µg/mL

Alterporriol A + B
MHK values MRSA (methicillin-resistant Staphylococcus aureus) [1, 6]: 15.6 µg/mL
MHK values AB (Acinetobacter baumanii) (Acinetobacter baumanii): 125 µg/mL
MHK values STR (Streptococcus pneumoniae) (Streptococcus pneumoniae): 7.8 µg/mL
MHK values EK (Enterococcus faecalis or faecium) [2]: 15.6 µg/mL
MHK values ASP (Aspergillus fumigatus or faecalis) [3]: 62.5 µg/mL
MHK values SE (Staphylococcus epidermis) (Staphylococcus epidermis; [6]): 15.6 µg/mL

COc1cc(O)c2c(c1)C(=O)C1=C(C[C@@H](O)[C@@](C)(O)[C@@H]1O)C2=O [altersolanol C]
anti-microbial activity [4]: anti-microbial activity

COc1cc(O)c2c(c1)C(=O)C1=C(C[C@@H](O)[C@@](C)(O)C1)C2=O [altersolanol B]
anti-microbial activity [4]: anti-microbial activity

COC1=CC(=O)c2c(O)c3c(c(O)c2C1=O)C[C@](C)(O)[C@H](O)[C@H]3O [Bostrycin]
MIC [1, 6]: 125 µg/mL (≈ 372 µM)
MHK values AB (Acinetobacter baumanii) (Acinetobacter baumanii): 125 µg/mL
MHK values STR (Streptococcus pneumoniae) (Streptococcus pneumoniae): 62.5 µg/mL
MIC (Staphylococcus epidermis; [6]): 125 µg/mL (≈ 372 µM)

COc1cc(O)c2c(c1O)[C@H](O)[C@H]1C[C@](C)(O)[C@H](O)C[C@@H]1C2=O [Example 5, (2R,3S,4aS,9aS,10R)-2,3,5,8,10-penta-hydroxy-6-methoxy-3-methyl-1,2,3,4,4a,9a-hexahydro-9H,10H-anthracen-9-one]
MIC [1, 6]: 15.6 µg/mL (≈ 48.1 µM)
activity against methicillin-resistant Staphylococcus aureus, in words [1, 7]: very good activity
MHK values STR (Streptococcus pneumoniae) (Streptococcus pneumoniae): 7.8 µg/mL
activity against Streptococcus pneumoniae, in words (Streptococcus pneumoniae; [7]): excellent effectiveness
effectiveness against Staphylococcus aureus or methicillin-resistant Staphylococcus aureus [5]: slight effectiveness
MHK values EK (Enterococcus faecalis or faecium) [2]: 125 µg/mL
MHK values ASP (Aspergillus fumigatus or faecalis) [3]: 31.2 µg/mL
MIC (Staphylococcus epidermis; [6]): 15.6 µg/mL (≈ 48.1 µM)

COc1cc(O)c(C(=O)O)c(-c2cc(O)c(O)cc2C)c1 [Altenusin]
MIC [1]: 31.2 µg/mL (≈ 107 µM)
MHK values AB (Acinetobacter baumanii) (Acinetobacter baumanii): 62.5 µg/mL
MHK values EC (E. coli) (E. coli): 62.5 µg/mL
MHK values STR (Streptococcus pneumoniae) (Streptococcus pneumoniae): 31.2 µg/mL
MHK values EK (Enterococcus faecalis or faecium) [2]: 62.5 µg/mL
MIC (Staphylococcus epidermis): 31.2 µg/mL (≈ 107 µM)

Macrosporin sulfate
MHK values AB (Acinetobacter baumanii) (Acinetobacter baumanii): 125 µg/mL
MHK values STR (Streptococcus pneumoniae) (Streptococcus pneumoniae): 31.2 µg/mL

COc1cc(O)c2c(c1)[C@H](O)[C@@H]1[C@@H](C2=O)[C@H](O)[C@@H](O)[C@@](C)(O)[C@@H]1O [Ampelanol]
activity against bacteria and fungi (bacteria and fungi): do not show any activity

COc1cc(O)c2c(c1)[C@H](O)[C@@H]1[C@H](C[C@@H](O)[C@@](C)(O)[C@@H]1O)C2=O [Example 3, (2R,3R,4R,4aS,9aS,10R)-2,3,4,8,10-pentahydroxy-6-methoxy-3-methyl-1,2,3,4,4a,9a-hexahydro-9H,10H-anthracen-9-one]
MIC [1, 6]: 7.8 µg/mL (≈ 24 µM)
MHK values AB (Acinetobacter baumanii) (Acinetobacter baumanii): 7.8 µg/mL
MHK values STR (Streptococcus pneumoniae) (Streptococcus pneumoniae): 7.8 µg/mL
MHK values EK (Enterococcus faecalis or faecium) [2]: 7.8 µg/mL
MHK values ASP (Aspergillus fumigatus or faecalis) [3]: 31.2 µg/mL
MIC (Staphylococcus epidermis; [6]): 7.8 µg/mL (≈ 24 µM)

COc1cc(O)c2c(c1)C(=O)[C@H]1C[C@](C)(O)[C@H](O)C[C@@H]1[C@H]2O [Altersolanol J]
MHK values MRSA (methicillin-resistant Staphylococcus aureus) [1, 6]: 62.5 µg/mL
MHK values AB (Acinetobacter baumanii) (Acinetobacter baumanii): 125 µg/mL
MHK values STR (Streptococcus pneumoniae) (Streptococcus pneumoniae): 15.6 µg/mL
MHK values EK (Enterococcus faecalis or faecium) [2]: 31.2 µg/mL
MHK values ASP (Aspergillus fumigatus or faecalis) [3]: 125 µg/mL
MHK values KL (Klebsiella sp.) (Klebsiella sp.): 125 µg/mL
activity against bacteria and fungi (bacteria and fungi): do not show any activity
MHK values SE (Staphylococcus epidermis) (Staphylococcus epidermis; [6]): 62.5 µg/mL

COc1cc(O)c2c(c1)C(=O)[C@@H]1[C@H](C[C@@H](O)[C@@](C)(O)[C@@H]1O)[C@H]2O [Example 2, (1R,2R,3R,4aS,9aR,10R)-1,2,3,5,10-pentahydroxy-7-methoxy-2-methyl-1,2,3,4,4a,9a-hexahydro-9H,10H-anthracen-9-one]
MIC [1, 6]: 31.2 µg/mL (≈ 96.2 µM)
MHK values STR (Streptococcus pneumoniae) (Streptococcus pneumoniae): 31.2 µg/mL
MHK values EK (Enterococcus faecalis or faecium) [2]: 31.2 µg/mL
MHK values ASP (Aspergillus fumigatus or faecalis) [3]: 62.5 µg/mL
MIC (Staphylococcus epidermis; [6]): 31.2 µg/mL (≈ 96.2 µM)

COc1cc(O)c2c(c1)C(=O)C1=C(C2=O)[C@H](O)[C@@H](O)[C@@](C)(O)[C@@H]1O [Altersolanol A, 7-methoxy-2-methyl-(1R,2S,3R,4S)-1,2,3,4-tetrahydro-1,2,3,4,5-pentahydroxy-anthracene-9,10-dione]
MIC [1]: 7.8 µg/mL (≈ 23.2 µM)
MHK values AB (Acinetobacter baumanii) (Acinetobacter baumanii): 62.5 µg/mL
MHK values EC (E. coli) (E. coli): 62.5 µg/mL
anti-microbial activity [4]: anti-microbial activity
MHK values STR (Streptococcus pneumoniae) (Streptococcus pneumoniae): 7.8 µg/mL
MHK values EK (Enterococcus faecalis or faecium) [2]: 15.6 µg/mL
MHK values ASP (Aspergillus fumigatus or faecalis) [3]: 7.8 µg/mL
activity against bacteria and fungi (bacteria and fungi): most efficient of the tested substances
MIC (Staphylococcus epidermis; [6]): 7.8 µg/mL (≈ 23.2 µM)

altersolanol D
anti-microbial activity [4]: completely ineffective

alterporriols D and E
activity against bacteria and fungi (bacteria and fungi): do not show any activity

altersolanol F
anti-microbial activity [4]: completely ineffective

COc1cc2c(c(O)c1-c1c(OC)cc(O)c3c1C(=O)C1=C(C3=O)[C@H](O)[C@@H](O)[C@@](C)(O)[C@H]1O)C(=O)c1cc(O)c(C)cc1C2=O [Example 4, 8-(1,7-dihydroxy-6-methyl-3-methoxy-9,10-dioxo-9H,10H-anthracen-2-yl)-(1S,2S,3R,4S)-1,2,3,4,5-pentahydroxy-7-methoxy-2-methyl-1,2,3,4-tetrahydro-9H,10H-anthracen-9,10-dione]
MIC [1]: 7.8 µg/mL (≈ 12.6 µM)
MHK values STR (Streptococcus pneumoniae) (Streptococcus pneumoniae): 7.8 µg/mL
MHK values EK (Enterococcus faecalis or faecium) [2]: 7.8 µg/mL
MHK values ASP (Aspergillus fumigatus or faecalis) [3]: 125 µg/mL
MIC (Staphylococcus epidermis; [6]): 7.8 µg/mL (≈ 12.6 µM)

COc1cc(O)c2c(c1)C(=O)c1cc(C)c(O)cc1C2=O [Macrosporin]
MIC [1, 6]: 62.5 µg/mL (≈ 220 µM)
MHK values AB (Acinetobacter baumanii) (Acinetobacter baumanii): 125 µg/mL
MHK values EC (E. coli) (E. coli): 62.5 µg/mL
MIC (Staphylococcus epidermis; [6]): 62.5 µg/mL (≈ 220 µM)

— patent publication US20120129949A1, “Use of Anthracene Derivatives as Anti-Infectives” (SEALIFE PHARMA GMBH, priority 2009, published 2012)
